Consider 15 compounds from ChEMBL document CHEMBL4041518, “Novel tacrine-1,2,3-triazole hybrids: In vitro, in vivo biological evaluation and docking study of cholinesterase inhibitors” (Eur J Med Chem, 2017).

The structures appear in SMILES notation. Active and inactive are the calls of the source. No cut-off for these calls is given here. A value given as a limit tells only on which side of the number the result lay.

In experiment [1] the target is Acetylcholinesterase (Electrophorus electricus) (UniProt O42275). The experiment is described as follows: Potency index, ratio of rivastigmine IC50 to compound IC50 for electric eel AChE.
For experiment [2], the target named is Cholinesterase (Equus caballus) (UniProt P81908). The experiment is described as follows: Potency index, ratio of rivastigmine IC50 to compound IC50 for equine serum BuChE.
Experiment [3] concerns the target T1, Acetylcholinesterase (Electrophorus electricus, UniProt O42275).
Description: Inhibition of electric eel AChE using acetylthiocholine iodide as substrate preincubated for 15 mins followed by substrate addition measured after 20 mins by Ellman's method
In experiment [4] the target is T2, Cholinesterase (Equus caballus, UniProt P81908).
Description: Inhibition of equine serum BuChE using butyrylthiocholine iodide as substrate preincubated for 15 mins followed by substrate addition measured after 20 mins by Ellman's method
The subject of another experiment is MCF7. The experiment is described as follows: cells. Particulars: Homo sapiens, MCF7, 72 h.
In a further experiment the test system is T47D. The experiment is described as follows: cells. Particulars: Homo sapiens, 72 h.
Another experiment deals with MDA-MB-231. The experiment is described as follows: cells. Particulars: Homo sapiens, MDA-MB-231, 72 h.
Experiment [5] in a line: Antioxidant activity assessed as DPPH radical scavenging activity incubated under dark condition for 30 mins by UV-Visible spectrophotometric method. The experiment is classed as functional. A general note: The DPPH test is a chemical assay of radical scavenging.
The target in experiment [6] is T1, Acetylcholinesterase. The experiment is described as follows: Mixed-type inhibition of electric eel AChE using acetylthiocholine iodide as substrate preincubated for 15 mins followed by substrate addition measured after 20 mins by Lineweaver-Burk plot analysis.
Experiment [7] relates to PC-12. The experiment is described as follows: Neuroprotective activity against H2O2-induced cell death in rat PC12 cells assessed as cell viability at 50 uM preincubated for 3 hrs followed by H2O2 addition measured after 24 hrs by MTT assay relative to control. In kind it is functional. The note with it: read-out: Activity. (Tetrazolium dyes change colour on reduction, which living cells bring about.)

Experiment [8] deals with PC-12. The experiment is described as follows: Neuroprotective activity against H2O2-induced cell death in rat PC12 cells assessed as cell viability at 100 uM preincubated for 3 hrs followed by H2O2 addition measured after 24 hrs by MTT assay relative to control. Particulars: read-out: Activity. The experiment is classed as functional.
Experiment [9] relates to PC-12. The experiment is described as follows: Neuroprotective activity against H2O2-induced cell death in rat PC12 cells assessed as cell viability at 10 uM preincubated for 3 hrs followed by H2O2 addition measured after 24 hrs by MTT assay relative to control. The experiment is classed as functional. The note with it: read-out: Activity.
Experiment [10] deals with Rattus norvegicus. The experiment is described as follows: Reversal of scopolamine-induced memory impairment in Wistar albino rat assessed as decrease in escape latency time during 4 days training period at 5 to 20 mg/kg, ip administered 60 mins prior to test for 4 consecutive days followed by scopolamine challenge 30 mins prior to test by Morris water maze test. The experiment is classed as functional, organism-based.

Experiment [11] deals with Rattus norvegicus. The experiment is described as follows: Reversal of scopolamine-induced memory impairment in Wistar albino rat assessed as decrease in traveled distance during 4 days training period at 5 to 20 mg/kg, ip administered 60 mins prior to test for 4 consecutive days followed by scopolamine challenge 30 mins prior to test by Morris water maze test. The experiment is classed as functional, organism-based.

Experiment [12] has as its system Rattus norvegicus. The experiment is described as follows: Reversal of scopolamine-induced memory impairment in Wistar albino rat assessed as change in swimming speed during 4 days training period at 5 to 20 mg/kg, ip administered 60 mins prior to test for 4 consecutive days followed by scopolamine challenge 30 mins prior to test by Morris water maze test. In kind it is functional, organism-based.

The subject of experiment [13] is Rattus norvegicus. The experiment is described as follows: Reversal of scopolamine-induced memory impairment in Wistar albino rat assessed as increase in time spent in target quadrant at 5 to 20 mg/kg, ip administered for 4 consecutive days 60 mins prior to test followed by scopolamine challenge 30 mins prior to test measured on day 5 by Morris water maze test. The experiment is classed as functional, organism-based.

In experiment [14] the target is T2, Cholinesterase. The experiment is described as follows: Mixed-type inhibition of equine serum BuChE using butyrylthiocholine iodide as substrate preincubated for 15 mins followed by substrate addition measured after 20 mins by Lineweaver-Burk plot analysis.

Usually IC50 stands for the midpoint of a concentration-inhibition curve. A lower IC50 goes with greater potency. For orientation: Ki means the equilibrium dissociation constant of an inhibitor or competing ligand from its target. Low readings indicate a stronger hold on the target, high ones a looser hold on the target.

T1 sequence (O42275 whole entry): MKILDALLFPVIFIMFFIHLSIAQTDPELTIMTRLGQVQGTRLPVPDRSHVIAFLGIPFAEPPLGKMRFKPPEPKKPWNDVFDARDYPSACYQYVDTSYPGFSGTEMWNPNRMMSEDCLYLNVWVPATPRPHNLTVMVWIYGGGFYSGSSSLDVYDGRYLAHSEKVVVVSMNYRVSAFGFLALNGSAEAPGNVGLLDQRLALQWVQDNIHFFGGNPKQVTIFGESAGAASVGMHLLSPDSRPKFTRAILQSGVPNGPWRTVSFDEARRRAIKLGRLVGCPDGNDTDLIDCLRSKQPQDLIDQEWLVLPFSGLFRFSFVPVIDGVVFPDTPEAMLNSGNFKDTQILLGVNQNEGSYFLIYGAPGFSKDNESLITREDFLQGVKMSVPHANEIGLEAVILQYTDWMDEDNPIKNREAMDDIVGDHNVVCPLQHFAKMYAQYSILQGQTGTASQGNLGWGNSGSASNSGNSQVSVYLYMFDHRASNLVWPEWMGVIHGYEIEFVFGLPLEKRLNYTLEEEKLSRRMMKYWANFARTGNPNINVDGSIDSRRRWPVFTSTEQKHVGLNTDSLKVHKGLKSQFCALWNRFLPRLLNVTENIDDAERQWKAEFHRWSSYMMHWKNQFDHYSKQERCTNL
Acetylcholinesterase (Electrophorus electricus), sequence (O42275 24-633 limits assumed): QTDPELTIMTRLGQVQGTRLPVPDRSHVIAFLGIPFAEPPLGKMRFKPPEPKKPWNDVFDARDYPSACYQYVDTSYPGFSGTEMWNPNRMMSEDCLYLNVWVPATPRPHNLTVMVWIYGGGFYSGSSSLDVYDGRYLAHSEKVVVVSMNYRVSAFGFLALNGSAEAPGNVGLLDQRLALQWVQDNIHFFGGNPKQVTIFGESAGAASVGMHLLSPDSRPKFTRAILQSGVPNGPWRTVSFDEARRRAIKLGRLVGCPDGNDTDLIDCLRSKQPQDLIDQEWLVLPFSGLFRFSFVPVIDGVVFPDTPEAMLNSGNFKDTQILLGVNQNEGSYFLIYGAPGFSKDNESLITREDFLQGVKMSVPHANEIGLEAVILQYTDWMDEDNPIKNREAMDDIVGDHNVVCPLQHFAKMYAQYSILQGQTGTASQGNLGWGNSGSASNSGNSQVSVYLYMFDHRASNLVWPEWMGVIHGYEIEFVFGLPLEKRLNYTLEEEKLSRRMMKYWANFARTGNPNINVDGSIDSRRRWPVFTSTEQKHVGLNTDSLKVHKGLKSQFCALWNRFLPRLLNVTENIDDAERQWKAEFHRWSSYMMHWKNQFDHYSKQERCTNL
T2 sequence (P81908 whole entry): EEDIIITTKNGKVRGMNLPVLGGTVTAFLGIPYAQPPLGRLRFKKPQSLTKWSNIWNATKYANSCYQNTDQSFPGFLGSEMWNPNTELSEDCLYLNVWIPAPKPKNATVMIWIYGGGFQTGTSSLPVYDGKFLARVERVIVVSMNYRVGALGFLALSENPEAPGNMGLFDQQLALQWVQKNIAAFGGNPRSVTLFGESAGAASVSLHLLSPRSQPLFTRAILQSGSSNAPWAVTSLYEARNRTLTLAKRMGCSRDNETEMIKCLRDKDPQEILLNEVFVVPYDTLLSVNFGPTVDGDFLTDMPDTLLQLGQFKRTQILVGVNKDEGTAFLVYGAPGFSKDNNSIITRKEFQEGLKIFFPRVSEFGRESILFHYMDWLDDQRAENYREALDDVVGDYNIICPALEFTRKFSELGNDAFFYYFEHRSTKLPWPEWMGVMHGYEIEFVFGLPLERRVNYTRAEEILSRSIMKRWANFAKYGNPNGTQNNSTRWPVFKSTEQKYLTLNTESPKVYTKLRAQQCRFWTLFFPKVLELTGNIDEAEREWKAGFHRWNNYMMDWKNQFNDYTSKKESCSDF
Cholinesterase (Equus caballus), sequence (P81908 whole entry): as above
Description for MCF7: Cytotoxicity against human MCF7 cells assessed as reduction in cell viability after 72 hrs by MTT assay
Description for MDA-MB-231: Cytotoxicity against human MDA-MB-231 cells assessed as reduction in cell viability after 72 hrs by MTT assay
Description for T47D: Cytotoxicity against human T47D cells assessed as reduction in cell viability after 72 hrs by MTT assay

With `Fc1ccc(Cn2cc(CNc3c4c(nc5ccccc35)CCCC4)nn2)cc1`, the figures for the Ratio IC50 in [1] and in [2] were 3 to 21 and 2 to 140, respectively. In addition, the IC50 at Acetylcholinesterase [3] is 2380 nM; against Cholinesterase [4] it was 59 nM; in the experiment on MCF7, > 100000 nM; in the experiment with T47D, > 100000 nM; in the experiment with MDA-MB-231, > 100000 nM.
In the case of `c1ccc(Cn2cc(CNc3c4c(nc5ccccc35)CCCC4)nn2)cc1`, the Ratio IC50 in experiment [1] was in the range of 3 to 21; in [2], 2 to 140. Besides, the IC50 against Acetylcholinesterase [3] is 3300 nM; at Cholinesterase [4], 180 nM; with MCF7 it was 97100 nM; in the experiment with T47D, 62900 nM; in the experiment on MDA-MB-231, 81400 nM.
With `Cc1ccc(Cn2cc(CNc3c4c(nc5ccc(Cl)cc35)CCCC4)nn2)cc1`, the Ratio IC50 in experiment [1] lay in the range of 3 to 21; in [2] it was 2 to 140. In addition, in experiment [5], the outcome was inactive. The IC50 on Acetylcholinesterase [3] was 768 nM; against Cholinesterase [4], 747 nM.
Take `Clc1ccc(Cn2cc(CNc3c4c(nc5ccc(Cl)cc35)CCCC4)nn2)cc1`: the results for the Ratio IC50 in experiment [1] and in experiment [2] were 3 to 21 and 2 to 140, respectively. Besides, the values for the IC50 against Acetylcholinesterase [3] and against Cholinesterase [4] were 1960 nM and 3940 nM, respectively.
On to `COc1ccc(Cn2cc(CNc3c4c(nc5ccc(Cl)cc35)CCCC4)nn2)cc1`, for which the Ratio IC50 was in the range of 3 to 21 in experiment [1] and 2 to 140 in [2]. The Ki at Acetylcholinesterase [6] was found to be 940 nM. Also, the result (in [5]; in the experiment with Rattus norvegicus [12]) was inactive. The viability at 50 µM in the experiment with PC-12 [7] was determined as 73.5%. Further, the viability at 100 µM with PC-12 [8] was 74.8%. For the same compound, the viability at 10 µM in the experiment with PC-12 [9] was 65.4%. Further, the outcome in the experiment on Rattus norvegicus [10], in the experiment with Rattus norvegicus [11] and in the experiment with Rattus norvegicus [13] was Active. Moreover, the IC50 against Acetylcholinesterase [3] is 521 nM; against Cholinesterase [4], 1850 nM; in the experiment with MCF7 it was > 100000 nM; in the experiment on T47D, > 100000 nM; in the experiment with MDA-MB-231 it was > 100000 nM.
Take `Clc1ccc2nc3c(c(NCc4cn(Cc5ccccc5)nn4)c2c1)CCCC3`: the Ratio IC50 in [1] lay in the range of 3 to 21; in experiment [2], 2 to 140. In addition, the IC50 against Acetylcholinesterase [3] is 2390 nM; on Cholinesterase [4] it was > 5000 nM.
As for `Cc1ccc(Cn2cc(CNc3c4c(nc5ccccc35)CCCC4)nn2)cc1`, the Ratio IC50 in [1] fell in the range of 3 to 21; in experiment [2] it was 2 to 140. Moreover, the IC50 against Acetylcholinesterase [3] was 621 nM; at Cholinesterase [4], 72 nM.
With `Clc1ccc(Cn2cc(CNc3c4c(nc5ccccc35)CCCC4)nn2)cc1`, the Ratio IC50 lay within 3 to 21 in experiment [1] and 2 to 140 in experiment [2]. Also, the outcome in [5] was inactive. Moreover, the concentration for half-maximal inhibition (IC50) is 1970 nM at Acetylcholinesterase [3] and 151 nM against Cholinesterase [4].
For the compound `COc1ccc(Cn2cc(CNc3c4c(nc5ccccc35)CCCC4)nn2)cc1`, the Ratio IC50 lay in the range of 3 to 21 in experiment [1] and 2 to 140 in experiment [2]. At Cholinesterase [14], the Ki turned out to be 121 nM. Besides, the IC50 is 2000 nM at Acetylcholinesterase [3]; 55 nM on Cholinesterase [4]; > 100000 nM with MCF7; 94100 nM with T47D; > 100000 nM with MDA-MB-231.
Turning to `Clc1ccc(Cn2cc(CNc3c4c(nc5cc(Cl)ccc35)CCCC4)nn2)cc1`, the Ratio IC50 was 3 to 21 in [1] and 2 to 140 in experiment [2]. For the same compound, the IC50 against Acetylcholinesterase [3] was 983 nM; at Cholinesterase [4] it was > 5000 nM.
`Cc1ccc(Cn2cc(CNc3c4c(nc5cc(Cl)ccc35)CCCC4)nn2)cc1`: the results for the Ratio IC50 in experiment [1] and in experiment [2] were 3 to 21 and 2 to 140, respectively. Further, the IC50 came to 1110 nM at Acetylcholinesterase [3] and 65 nM against Cholinesterase [4].
For `Fc1ccc(Cn2cc(CNc3c4c(nc5cc(Cl)ccc35)CCCC4)nn2)cc1`, the Ratio IC50 in [1] is 3 to 21; in experiment [2], 2 to 140. For the same compound, the IC50 is 2280 nM against Acetylcholinesterase [3]; 216 nM against Cholinesterase [4]; 87500 nM in the experiment on MCF7; 80000 nM in the experiment with T47D; 83400 nM in the experiment on MDA-MB-231.
As to `Clc1ccc2c(NCc3cn(Cc4ccccc4)nn3)c3c(nc2c1)CCCC3`, the figures for the Ratio IC50 in experiment [1] and in [2] were 3 to 21 and 2 to 140, respectively. In addition, the IC50 against Acetylcholinesterase [3] was 2320 nM; against Cholinesterase [4], 197 nM; in the experiment on MCF7 it was > 100000 nM; in the experiment on T47D, 97300 nM; in the experiment on MDA-MB-231, > 100000 nM.
As for `COc1ccc(Cn2cc(CNc3c4c(nc5cc(Cl)ccc35)CCCC4)nn2)cc1`, the Ratio IC50 in experiment [1] was in the range of 3 to 21; in [2] it was 2 to 140. In addition, the IC50 on Acetylcholinesterase [3] came out at 737 nM; against Cholinesterase [4] it was 115 nM.
Consider `Fc1ccc(Cn2cc(CNc3c4c(nc5ccc(Cl)cc35)CCCC4)nn2)cc1`, for which the Ratio IC50 in experiment [1] lay in the range of 3 to 21; in [2], 2 to 140. Besides, the half-maximal inhibitory concentration (IC50) was found to be 1440 nM on Acetylcholinesterase [3] and 721 nM on Cholinesterase [4].
